Data as given in patent publication US7662822B2, “Substituted azaquinazolines having an antiviral action” (Bayer Schering Pharma Aktiengesellschaft, priority 2004, dated 2010).
Structures can show the parent of a compound that is named as a salt. Where two headings read alike, the source gives them in different places.

Assays:
[1] = test system: HCMV (human cytomegalovirus); assay: Anti-HCMV cytopathogenicity test: inhibition of CPE; type: cell-based; conditions: for EC50: read-out: HCMV EC50
Method: (§1) Anti-HCMV (Anti-Human Cytomegalovirus) Cytopathogenicity Tests
(§2) The test compounds are employed as 50 millimolar (mM) solutions in dimethyl sulphoxide (DMSO). Ganciclovir®, Foscarnet® and Cidofovir® are used as reference compounds. After addition of in each case 2 μl of the 50, 5, 0.5 and 0.05 mM DMSO stock solutions to 98 μl portions of cell culture medium in row 2 A-H for duplicate determinations, 1:2 dilutions are carried out with 50 μl portions of medium up to row 11 of the 96-well plate. The wells in rows 1 and 12 each contain 50 μl of medium. 150 μl of a suspension of 1×10^4 cells (human prepuce fibroblasts [NHDF]) are then pipetted into each of the wells (row 1=cell control) and, in rows 2-12, a mixture of HCMV-infected and uninfected NHDF cells (M.O.I.=0.001−0.002), i.e. 1-2 infected cells per 1000 uninfected cells. Row 12 (without substance) serves as virus control. The final test concentrations are 250-0.0005 μM. The plates are incubated at 37° C./5% CO2 for 6 days, i.e. until all the cells are infected in the virus controls (100% cytopathogenic effect [CPE]). The wells are then fixed and stained by adding a mixture of formalin and Giemsa's dye (30 minutes), washed with double-distilled water and dried in a drying oven at 50° C. The plates are then assessed visually using an overhead microscope (plaque multiplier from Technomara).
(§3) The following data can be acquired from the test plates:
EC50 (HCMV)=substance concentration in μM which inhibits the CPE (cytopathic effect) by 50% compared with the untreated virus control;
SI (selectivity index)=CC50 (NHDF)/EC50 (HCMV).

[2] = Anti-HCMV cytopathogenicity test: cytostatic effect on NHDF cells; type: cell-based; conditions: human, human prepuce fibroblasts (NHDF cells), 6 days incubation, visual assessment
Method: as §1, §2, §3
CC50 (NHDF)=substance concentration in μM at which no visible cytostatic effects on the cells are evident by comparison with the untreated cell control;

[3] = Human betaherpesvirus 5, 144 h, HCMV-infected NHDF cells, M.O.I. 0.001-0.002, 6 days, inhibition of CPE by 50%

SMILES	SI HCMV (selectivity index = CC50 (NHDF)/EC50 (HCMV)) [1]	EC50 ([1]; Human betaherpesvirus 5, NHDF, 144 h) [µM]	CC50 at 6 days [2] [µM]	EC50 [1, 3] [µM]
COc1cccc(N2CCN(C3=Nc4cnccc4C(CC(=O)O)N3c3cccc(C(F)(F)F)c3)CC2)c1 (stereo not drawn) [Example 4, {2-[4-(3-Methoxyphenyl)piperazin-1-yl]-3-[3-(trifluoromethyl)phenyl]-3,4-dihydropyrido[3,4-d]-pyrimidin-4-yl}acetic acid hydrochloride]	470	0.2	94	
COc1ccc(C)cc1N1C(N2CCN(c3ccc(F)cc3)CC2)=Nc2ccncc2C1CC(=O)O (stereo not drawn) [Example 8, [2-[4-(4-Fluorophenyl)piperazin-1-yl]-3-(2-methoxy-5-methylphenyl)-3,4-dihydropyrido[4,3-d]-pyrimidin-4-yl] acetic acid]	1786		250	0.14
COc1ccc(C(F)(F)F)cc1N1C(N2CCN(c3ccc(F)cc3)CC2)=Nc2ccncc2C1CC(=O)O (stereo not drawn) [Example 9, {2-[4-(4-Fluorophenyl)piperazin-1-yl]-3-[2-methoxy-5-(trifluoromethyl)phenyl]-3,4-dihydro-pyrido[4,3-d]pyrimidin-4-yl}acetic acid]	1880		94	0.05
